PubChem BioAssay (NCI)
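In this assay, cells in 96-well plates receive the compound at five concentrations for 48 hours. Endpoints are linearly interpolated between the surrounding concentrations. GI50: concentration for 50% inhibition of growth. TGI is the concentration that stops growth completely.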

Tests used:
Assay in all cases: NCI tumour cell line growth inhibition, 48 h
[1] = system: 786-0 renal
[2] = system: A498 renal
[3] = system: A549 NSCLC
[4] = system: ACHN renal
[5] = system: BT-549 breast
[6] = system: CAKI-1 renal
[7] = system: CCRF-CEM leukemia
[8] = system: COLO 205 colon
[9] = system: DU-145 prostate
[10] = system: EKVX NSCLC
[11] = system: HCC-2998 colon
[12] = system: HCT-116 colon
[13] = system: HCT-15 colon
[14] = system: HL-60(TB) leukemia
[15] = system: HOP-62 NSCLC
[16] = system: HOP-92 NSCLC
[17] = system: HS 578T breast
[18] = system: HT29 colon
[19] = system: IGROV1 ovarian
[20] = system: K-562 leukemia
[21] = system: KM12 colon
[22] = system: LOX IMVI melanoma
[23] = system: M14 melanoma
[24] = system: MALME-3M melanoma
[25] = system: MCF7 breast
[26] = system: MDA-MB-231 breast
[27] = system: MDA-MB-435
[28] = system: MOLT-4 leukemia
[29] = system: NCI-H226 lung
[30] = system: NCI-H23 lung
[31] = system: NCI-H460 lung
[32] = system: NCI-H522 lung
[33] = system: NCI/ADR-RES ovarian
[34] = system: OVCAR-3 ovarian
[35] = system: OVCAR-4 ovarian
[36] = system: OVCAR-5 ovarian
[37] = system: OVCAR-8 ovarian
[38] = system: PC-3 prostate
[39] = system: RPMI-8226 leukemia
[40] = system: RXF 393 renal
[41] = system: SF-268 CNS
[42] = system: SF-295 CNS
[43] = system: SF-539 CNS
[44] = system: SK-MEL-2 melanoma
[45] = system: SK-MEL-28 melanoma
[46] = system: SK-MEL-5 melanoma
[47] = system: SK-OV-3 ovarian
[48] = system: SN12C renal
[49] = system: SNB-19 CNS
[50] = system: SNB-75 CNS
[51] = system: SR leukemia
[52] = system: SW-620 colon
[53] = system: T-47D breast
[54] = system: TK-10 renal
[55] = system: U251 CNS
[56] = system: UACC-257 melanoma
[57] = system: UACC-62 melanoma
[58] = system: UO-31 renal

SMILES: CC(=O)C(C)CCOC1(C)OCCC1C (stereo unspecified)
- TGI [1]: > 100 µM
- TGI [2]: > 100 µM
- TGI [3]: > 100 µM
- TGI [4]: > 100 µM
- TGI [5]: > 100 µM
- TGI [6]: > 100 µM
- TGI [7]: > 100 µM
- TGI [8]: > 100 µM
- TGI [9]: > 100 µM
- TGI [10]: > 100 µM
- TGI [11]: > 100 µM
- TGI [12]: > 100 µM
- TGI [13]: > 100 µM
- TGI [14]: > 100 µM
- TGI [15]: > 100 µM
- TGI [16]: > 100 µM
- TGI [17]: > 100 µM
- TGI [18]: > 100 µM
- TGI [19]: > 100 µM
- TGI [20]: > 100 µM
- TGI [21]: > 100 µM
- TGI [22]: > 100 µM
- TGI [23]: > 100 µM
- TGI [24]: > 100 µM
- TGI [25]: > 100 µM
- TGI [26]: > 100 µM
- TGI [27]: > 100 µM
- TGI [28]: > 100 µM
- TGI [29]: > 100 µM
- TGI [30]: > 100 µM
- TGI [31]: > 100 µM
- TGI [32]: > 100 µM
- TGI [33]: > 100 µM
- TGI [34]: > 100 µM
- TGI [35]: > 100 µM
- TGI [36]: > 100 µM
- TGI [37]: > 100 µM
- TGI [38]: > 100 µM
- TGI [39]: > 100 µM
- TGI [40]: > 100 µM
- TGI [41]: > 100 µM
- TGI [42]: > 100 µM
- TGI [43]: > 100 µM
- TGI [44]: > 100 µM
- TGI [45]: > 100 µM
- TGI [46]: > 100 µM
- TGI [47]: > 100 µM
- TGI [48]: > 100 µM
- TGI [49]: > 100 µM
- TGI [50]: > 100 µM
- TGI [51]: > 100 µM
- TGI [52]: > 100 µM
- TGI [53]: > 100 µM
- TGI [54]: > 100 µM
- TGI [55]: > 100 µM
- TGI [56]: > 100 µM
- TGI [57]: > 100 µM
- TGI [58]: > 100 µM

SMILES: Cc1cc(-c2ncc(-c3cccnc3)cc2/C=C/c2ccccc2)cnc1-c1cccnc1
- GI50 [1]: 6.05 µM
- TGI [1]: > 100 µM
- GI50 [2]: 2.31 µM
- TGI [2]: > 30.9 µM
- GI50 [3]: 3.92 µM
- TGI [3]: > 100 µM
- GI50 [4]: 3.91 µM
- TGI [4]: > 100 µM
- GI50 [5]: 3.05 µM
- TGI [5]: 20.8 µM
- GI50 [6]: 4.25 µM
- TGI [6]: > 100 µM
- GI50 [7]: 1.17 µM
- TGI [7]: 7.76 µM
- TGI [8]: > 100 µM
- GI50 [9]: 3.35 µM
- TGI [9]: > 100 µM
- GI50 [10]: 3.39 µM
- TGI [10]: > 100 µM
- GI50 [11]: > 25.4 µM
- TGI [11]: > 100 µM
- GI50 [12]: 4.22 µM
- TGI [12]: > 100 µM
- GI50 [13]: 2.95 µM
- TGI [13]: > 100 µM
- GI50 [14]: 2.35 µM
- TGI [14]: 12.3 µM
- GI50 [15]: 4.45 µM
- TGI [15]: 97.5 µM
- GI50 [16]: 2.96 µM
- TGI [16]: > 26 µM
- GI50 [17]: 3.39 µM
- TGI [17]: > 100 µM
- GI50 [18]: 3.52 µM
- TGI [18]: > 100 µM
- GI50 [19]: 5.39 µM
- TGI [19]: > 100 µM
- GI50 [20]: 3.28 µM
- TGI [20]: > 100 µM
- GI50 [21]: 3.3 µM
- TGI [21]: > 100 µM
- GI50 [22]: 3.12 µM
- TGI [22]: 19.7 µM
- GI50 [23]: 4.24 µM
- TGI [23]: > 100 µM
- GI50 [24]: 2.81 µM
- TGI [24]: 16.9 µM
- GI50 [25]: 3.02 µM
- TGI [25]: > 100 µM
- GI50 [26]: 4.76 µM
- TGI [26]: > 100 µM
- TGI [27]: > 100 µM
- GI50 [28]: 1.47 µM
- TGI [28]: 5.99 µM
- GI50 [29]: 2.62 µM
- TGI [29]: 7.61 µM
- GI50 [30]: 4.59 µM
- TGI [30]: > 100 µM
- GI50 [31]: 2.28 µM
- TGI [31]: 5.27 µM
- GI50 [32]: 3.01 µM
- TGI [32]: 14.9 µM
- GI50 [33]: 3.62 µM
- TGI [33]: > 100 µM
- GI50 [34]: 3.48 µM
- TGI [34]: 37.7 µM
- GI50 [35]: > 21.1 µM
- TGI [35]: > 100 µM
- GI50 [36]: > 72.6 µM
- TGI [36]: > 100 µM
- GI50 [37]: 3.81 µM
- TGI [37]: > 100 µM
- GI50 [38]: 3.21 µM
- TGI [38]: > 100 µM
- GI50 [39]: 2.53 µM
- TGI [39]: 16.7 µM
- GI50 [40]: 4.13 µM
- TGI [40]: 75.3 µM
- GI50 [41]: 5.81 µM
- TGI [41]: > 100 µM
- GI50 [42]: 5.62 µM
- TGI [42]: 52.1 µM
- GI50 [43]: 11.5 µM
- TGI [43]: > 33.2 µM
- GI50 [44]: 4.93 µM
- TGI [44]: > 66.9 µM
- GI50 [45]: > 20.2 µM
- TGI [45]: > 100 µM
- GI50 [46]: 1.46 µM
- TGI [46]: 3.02 µM
- GI50 [47]: 19.1 µM
- TGI [47]: > 100 µM
- GI50 [48]: 3.59 µM
- TGI [48]: > 100 µM
- GI50 [49]: 5.32 µM
- TGI [49]: > 100 µM
- GI50 [50]: 5.23 µM
- TGI [50]: > 63.4 µM
- GI50 [51]: 2.69 µM
- TGI [51]: > 28.5 µM
- GI50 [52]: 4.41 µM
- TGI [52]: > 100 µM
- GI50 [53]: 2.4 µM
- TGI [53]: > 30.8 µM
- TGI [54]: > 100 µM
- GI50 [55]: 4.54 µM
- TGI [55]: > 100 µM
- GI50 [56]: 5.08 µM
- TGI [56]: > 100 µM
- GI50 [57]: 3.91 µM
- TGI [57]: > 83.9 µM
- GI50 [58]: 2.27 µM
- TGI [58]: 9.04 µM
